Like-named read-outs stand apart in the source and are kept apart here.
Target: SARS-CoV-2 main protease (M^pro) (Severe acute respiratory syndrome coronavirus 2, UniProt P0DTD1)
Test: Rapid-Fire MS Biochemical Assay measuring Mpro activity (5 nM Mpro)
Settings: Mpro inhibition, 5 μM substrate peptide, 120 min
[1] = Table 1B, read-out: Rapid-Fire Assay IC50
[2] = Rapid-Fire Assay IC50, Table 1B

| SMILES | IC50 [1] [nM] | IC50 [2] [nM] |
| --- | --- | --- |
| N#CC1CN([C@H]2CC[C@H](C(F)(F)F)CC2)C(=O)N1c1cncc2ccccc12 (stereo partly shown) [Compound 128, 3-(isoquinolin-4-yl)-2-oxo-1-((1 r,4r)-4-(trifluoromethyl)cyclohexyl)imidazolidine-4-carbonitrile] | < 20 |  |
| N#C[C@@H]1CN(c2ccc(C(F)F)cc2)C(=O)N1c1cncc2ccccc12 (single isomer, unassigned) [Compound 108b] | > 1000 |  |
| N#C[C@@H]1CN(c2cnc(C(F)(F)F)nc2)C(=O)N1c1cncc2ccccc12 (single isomer, unassigned) [Compound 93b] | > 1000 |  |
| N#C[C@H]1CN(C2CC3(CCC3)C2)C(=O)N1c1cncc2ccccc12 (single isomer, unassigned) [Compound 122a] | < 20 |  |
| N#C[C@@H]1CN(C2CC3(CC3)C2)C(=O)N1c1cncc2ccccc12 (single isomer, unassigned) [Compound 125b] | > 1000 |  |
| CS(=O)(=O)c1ccc2cncc(N3C(=O)N(c4cc(F)cc(F)c4)C[C@H]3C#N)c2c1 (single isomer, unassigned) [Compound 86b] | > 1000 |  |
| N#C[C@H]1CN(C23CC(F)(C2)C3)C(=O)N1c1cncc2ccccc12 (single isomer, unassigned) [Compound 139a] | < 20 |  |
| N#CC1CN(C2CN(C3CC3)C2)C(=O)N1c1cncc2ccccc12 (racemic) [Compound 135, 1-(1-cyclopropylazetidin-3-yl)-3-(isoquinolin-4-yl)-2-oxoimidazolidine-4-carbonitrile] | 20 to 200 |  |
| N#C[C@@H]1CN([C@@H]2CCN(CCO)C2)C(=O)N1c1cncc2ccccc12 (single isomer, unassigned) [Compound 46b] | > 1000 |  |
| COc1cc(C(F)(F)F)ncc1N1C[C@@H](C#N)N(c2cncc3ccccc23)C1=O (single isomer, unassigned) [Compound 107b] | > 1000 |  |
| CS(=O)(=O)N1CC(N2C[C@@H](C#N)N(c3cncc4ccccc34)C2=O)C1 (single isomer, unassigned) [Compound 130b] | > 1000 |  |
| Cc1cc(N2C[C@H](C#N)N(c3cncc4ccccc34)C2=O)ccn1 (single isomer, unassigned) [Compound 44a] | 20 to 200 |  |
| CC1CC(N2CC(C#N)N(c3cncc4ccccc34)C2=O)C1 (single isomer, unassigned) [Compound 120c] |  | > 1000 |
| COc1cc(N2C[C@@H](C#N)N(c3cncc4ccccc34)C2=O)ccn1 (single isomer, unassigned) [Compound 23b] | > 1000 |  |
| N#C[C@H]1CN(c2cccc(C(F)(F)F)c2)C(=O)N1c1cncc2ccccc12 (single isomer, unassigned) [Compound 106a] | < 20 |  |
| N#C[C@H]1CN(c2cccc(OC(F)(F)F)c2)C(=O)N1c1cncc2ccccc12 (single isomer, unassigned) [Compound 92a] | < 20 |  |
| N#C[C@@H]1CN(C2CN(C3CC3)C2)C(=O)N1c1cncc2ccccc12 (single isomer, unassigned) [Compound 136b] | > 1000 |  |
| N#C[C@H]1CN(c2ccc(C(F)F)cc2)C(=O)N1c1cncc2ccccc12 (single isomer, unassigned) [Compound 108a] | < 20 |  |
| N#C[C@@H]1CN(c2ccc(C(F)(F)F)cn2)C(=O)N1c1cncc2ccccc12 (single isomer, unassigned) [Compound 97b] | > 1000 |  |
| COc1cc(Cl)ccc1N1CC(C#N)N(c2cncc3ccccc23)C1=O (racemic) [Compound 103, 1-(4-chloro-2-methoxyphenyl)-3-(isoquinolin-4-yl)-2-oxoimidazolidine-4-carbonitrile] | 20 to 200 |  |
| N#Cc1ccc(N2C[C@@H](C#N)N(c3cncc4ccccc34)C2=O)cc1F (single isomer, unassigned) [Compound 73b] |  | 200 to 1000 |
| N#C[C@@H]1CN(c2cccc(OC(F)(F)F)c2)C(=O)N1c1cncc2ccccc12 (single isomer, unassigned) [Compound 92b] | 200 to 1000 |  |
| COc1ccc(F)cc1N1C[C@@H](C#N)N(c2cncc3ccccc23)C1=O (single isomer, unassigned) [Compound 105b] | > 1000 |  |
| CS(=O)(=O)c1cccc(N2C[C@@H](C#N)N(c3cncc4ccccc34)C2=O)c1 (single isomer, unassigned) [Compound 48b] | > 1000 |  |
| Cc1ccc(C#N)c(N2C[C@H](C#N)N(c3cncc4ccccc34)C2=O)c1 (single isomer, unassigned) [Compound 116a] | < 20 |  |
| Cn1c(C(F)(F)F)ccc(N2C[C@H](C#N)N(c3cncc4ccccc34)C2=O)c1=O (single isomer, unassigned) [Compound 96a] | 20 to 200 |  |
| Cc1ccc(F)cc1N1C[C@@H](C#N)N(c2cncc3ccccc23)C1=O (single isomer, unassigned) [Compound 21b] | > 1000 |  |
| Cn1cc(N2C[C@@H](C#N)N(c3cncc4ccccc34)C2=O)cn1 (single isomer, unassigned) [Compound 65b] | > 1000 |  |

| SMILES | IC50 [1] [nM] | IC50 [2] [nM] |
| --- | --- | --- |
| N#C[C@@H]1CN(c2cc(F)cc(F)c2)C(=O)N1c1cncc2ccccc12 (single isomer, unassigned) [Compound 110b] | 200 to 1000 |  |
| CN1CC(N2CC(C#N)N(c3cncc4ccccc34)C2=O)C1 (stereo not shown) [Compound 132, 3-(isoquinolin-4-yl)-1-(1-methylazetidin-3-yl)-2-oxoimidazolidine-4-carbonitrile] | > 1000 |  |
| N#C[C@@H]1CN(C2CCC(F)(F)C2)C(=O)N1c1cncc2ccccc12 (single isomer, unassigned) [Compound 141c, (S)-1-((S)-3,3-difluorocyclopentyl)-3-(isoquinolin-4-yl)-2-oxoimidazolidine-4-carbonitrile or (S)-1-((R)-3,3-difluorocyclopentyl)-3-(isoquinolin-4-yl)-2-oxoimidazolidine-4-carbonitrile] | > 1000 |  |
| COc1ccc(C#N)cc1N1C[C@H](C#N)N(c2cncc3ccccc23)C1=O (single isomer, unassigned) [Compound 15a] | < 20 |  |
| COCCNC(=O)c1ccc2cncc(N3C(=O)N(c4cccc(Cl)c4)CC3C#N)c2c1 (stereo not shown) [Compound 36, 4-(3-(3-chlorophenyl)-5-cyano-2-oxoimidazolidin-1-yl)-N-(2-methoxyethyl)isoquinoline-6-carboxamide] | 20 to 200 |  |
| N#C[C@H]1CN(C2CN(C3CC3)C2)C(=O)N1c1cncc2ccccc12 (single isomer, unassigned) [Compound 136a] | < 20 |  |
| CS(=O)(=O)c1ccc2cncc(N3C(=O)N(c4cc(F)cc(F)c4)C[C@@H]3C#N)c2c1 (single isomer, unassigned) [Compound 86a] | 20 to 200 |  |
| N#Cc1cnc(C(F)(F)F)cc1N1C[C@@H](C#N)N(c2cncc3ccccc23)C1=O (single isomer, unassigned) [Compound 117b] | 200 to 1000 |  |
| N#C[C@@H]1CN(C2CC3(C2)CC(F)(F)C3)C(=O)N1c1cncc2ccccc12 (single isomer, unassigned) [Compound 127b] | > 1000 |  |
| N#C[C@H]1CN(c2ccc(C(F)(F)F)cc2)C(=O)N1c1cncc2ccccc12 (single isomer, unassigned) [Compound 99a] | < 20 |  |
| Cc1cnc(C(F)(F)F)nc1N1C[C@@H](C#N)N(c2cncc3ccccc23)C1=O (single isomer, unassigned) [Compound 62b] | > 1000 |  |
| COc1cnc(C(F)(F)F)cc1N1C[C@H](C#N)N(c2cncc3ccccc23)C1=O (single isomer, unassigned) [Compound 14a] | < 20 |  |
| N#Cc1ccc(Cl)cc1N1C[C@H](C#N)N(c2cncc3ccccc23)C1=O (single isomer, unassigned) [Compound 20a] | < 20 |  |
| Cn1cc(N2C[C@H](C#N)N(c3cncc4ccccc34)C2=O)cn1 (single isomer, unassigned) [Compound 65a] | 20 to 200 |  |
| Cc1cc(N2C[C@@H](C#N)N(c3cncc4ccccc34)C2=O)cc(C)n1 (single isomer, unassigned) [Compound 102b] | 200 to 1000 |  |
| COc1cc(C(F)(F)F)ncc1N1C[C@H](C#N)N(c2cncc3ccccc23)C1=O (single isomer, unassigned) [Compound 107a] | 20 to 200 |  |
| N#Cc1ccc(N2C[C@H](C#N)N(c3cncc4ccccc34)C2=O)cc1F (single isomer, unassigned) [Compound 73a] |  | < 20 |
| N#C[C@H]1CN(C2CC(C(F)(F)F)C2)C(=O)N1c1cncc2ccccc12 (mixture of isomers) [Compound 45, (R)-3-(isoquinolin-4-yl)-2-oxo-1-(3-(trifluoromethyl)cyclobutyl)imidazolidine-4-carbonitrile] | > 1000 |  |
| N#C[C@H]1CN(c2cncc(C(F)(F)F)c2)C(=O)N1c1cncc2ccccc12 (single isomer, unassigned) [Compound 104a] | < 20 |  |
| N#C[C@@H]1CN(c2nccc(C(F)(F)F)n2)C(=O)N1c1cncc2ccccc12 (single isomer, unassigned) [Compound 49b] | > 1000 |  |
| COc1ccc(C(F)(F)F)cc1N1C[C@H](C#N)N(c2cncc3ccccc23)C1=O (single isomer, unassigned) [Compound 17a] | < 20 |  |
| N#C[C@H]1CN(c2cccc(C(F)F)c2)C(=O)N1c1cncc2ccccc12 (single isomer, unassigned) [Compound 22a] | < 20 |  |
| N#C[C@H]1CN(c2cccc(F)c2)C(=O)N1c1cncc2ccccc12 (single isomer, unassigned) [Compound 76a] | < 20 |  |
| N#C[C@H]1CN([C@H]2CC[C@H](C(F)(F)F)CC2)C(=O)N1c1cncc2ccccc12 [Compound 128a, (R)-3-(isoquinolin-4-yl)-2-oxo-1-((1 r,4R)-4-(trifluoromethyl)cyclohexyl)imidazolidine-4-carbonitrile] | < 20 |  |
| N#C[C@@H]1CN(c2cc(Cl)cnn2)C(=O)N1c1cncc2ccccc12 (single isomer, unassigned) [Compound 54b] | 200 to 1000 |  |
| N#C[C@@H]1CN(C2CN(CC(F)(F)F)C2)C(=O)N1c1cncc2ccccc12 (single isomer, unassigned) [Compound 133b] | 20 to 200 |  |
| Cc1ccc(Cl)cc1N1C[C@@H](C#N)N(c2cncc3ccccc23)C1=O (single isomer, unassigned) [Compound 114b] | > 1000 |  |

Reference: US20250092016A1, “COMPOUNDS AND COMPOSITIONS FOR THE TREATMENT OF CORONAVIRAL RELATED DISEASES” (priority 2021, published 2025)
